Key:
Assay type in all cases: functional
Mus musculus [1] = assay: Antimalarial activity was assessed against Plasmodium berghei in mice (Mus musculus) at 160 mg/kg dosage of the compound; Toxic
Mus musculus [2] = assay: Antimalarial activity was assessed against Plasmodium berghei in mice (Mus musculus) at 640 mg/kg dosage of the compound; Toxic
Mus musculus [3] = assay: Antimalarial activity was assessed against Plasmodium berghei in mice (Mus musculus) at 320 mg/kg dosage of the compound; Toxic
Mus musculus [4] = assay: Antimalarial activity was assessed against Plasmodium berghei in mice (Mus musculus) at 640 mg/kg dosage of the compound: Toxic
Mus musculus [5] = assay: Antimalarial activity was assessed against Plasmodium berghei in mice (Mus musculus). at 320 mg/kg dosage of the compound; Toxic

Structure (SMILES) | toxic deaths (Mus musculus [1]) [count] | toxic deaths (Mus musculus [2]) [count] | toxic deaths (Mus musculus [3]) [count] | toxic deaths (Mus musculus [4]) [count] | toxic deaths (Mus musculus [5]) [count]
CC(N/N=C(\S)N(C)C)c1nccc2ccccc12 (stereo unspecified) | 1 | 5 | – | – | –
CC(N/N=C(\S)N1CCCCCC1)c1nccc2ccccc12 (stereo unspecified) | – | 2 | 3 | – | –
C/C(=N\N=C(/S)N(C)C1CCCCC1)c1nccc2ccccc12 | 1 | 5 | – | – | –
CC(N/N=C(\S)N(C)C1CCCCC1)c1nccc2ccccc12 (stereo unspecified) | 2 | 3 | 3 | – | –
CC1CCN(/C(S)=N/NC(C)c2nccc3ccccc23)CC1 (stereo unspecified) | – | 5 | 5 | – | –
CC(N/N=C(\S)N1CCN(c2ccccn2)CC1)c1nccc2ccccc12 (stereo unspecified) | – | 1 | 2 | – | –
CC(N/N=C(\S)N1CCCC1)c1nccc2ccccc12 (stereo unspecified) | – | 4 | 2 | – | –
C/C(=N\N=C(/S)N1CCC(C)CC1)c1nccc2ccccc12 | 1 | – | 5 | 5 | –
C/C(=N\N=C(/S)N1CC(C)OC(C)C1)c1nccc2ccccc12 (stereo unspecified) | – | 2 | 1 | – | –
C/C(=N\N=C(/S)N(C)C)c1nccc2ccccc12 | – | 5 | 5 | – | –
C/C(=N\N=C(/S)N1CCCCCC1)c1nccc2ccccc12 | – | 4 | – | – | –
CC1CN(/C(S)=N/NC(C)c2nccc3ccccc23)CC(C)O1 (stereo unspecified) | – | 1 | – | – | 1
C/C(=N\N=C(/S)N1CCCC1)c1nccc2ccccc12 | – | 5 | – | – | –

Source: ChEMBL document CHEMBL1122602, “2-Acetylpyridine thiosemicarbazones. 8. Derivatives of 1-acetylisoquinoline as potential antimalarial agents” (1984)
